Measurements from article PMC9785441, “A Broad Spectrum Antiparasitic Activity of Organotin (IV) Derivatives and Its Untargeted Proteomic Profiling Using Leishmania donovani” (Pathogens, 2022).
Read-outs that look alike come from different tables or passages of the source. Values belong to the molecule of their own block, whether it stands above or below them.

Legend:
[1] = tested on: E. histolytica HM1:IMSS trophozoites; test: E. histolytica trophozoite viability assay (CellTiter-Glo); assay type: cell-based, Entamoeba histolytica; details: 48 h
Description: Trophozoites of E. histolytica HM1:IMSS were maintained in vitro as described in TYI-S-33 medium supplemented with penicillin (100 U/mL) and streptomycin (100 µg/mL). Test compounds were serially diluted and transferred to a white solid bottomed 96-well tissue culture plate (E&K Scientific, Swedesboro, NJ, USA) followed by addition of 5000 E. histolytica trophozoites per well for a final volume of 100 µL TYI-S-33 medium and a final concentration of compounds ranging from 50 to 0.39 µM. Metronidazole were used as positive control and assay plates were incubated for 48 h at 37 °C. The plates maintained kept anaerobically using the GasPak EZ Anaerobic Gas Generating Pouch System (VWR). Parasite viability was measured in triplicate using the CellTiter-Glo luminescence kit (Promega G9243) in an Envision plate reader (Perkin Elmer, Waltham, MA, USA). EC50 values were obtained using GraphPad Prism 9 Software.

S. mansoni, adult worm = test: S. mansoni adult worm ex vivo phenotypic screen (severity score); assay type: cell-based, Schistosoma mansoni; details: for severity score, adult S. mansoni: maximum of 4; for S. mansoni, adult worm: least concentration at which a severity score of 4 was recorded: after 24 h, tested at 10, 5, 2.5 and 1.25 µM, EC50
Source text: The Naval Medical Research Institute (NMRI) isolate of S. mansoni was used. The parasite was cycled between Biomphalaria glabrata snails and male Golden Syrian hamsters (infected at 4–6 weeks of age) as intermediate and definitive hosts, respectively. Hamsters were infected and maintained in accordance with protocols approved by the Institutional Animal Care and Use Committee (IACUC) at the University of California San Diego. The acquisition, preparation and in vitro maintenance of S. mansoni have been described. Briefly, adult worms were harvested from hamsters 42 days post-infection in RPMI or DMEM, and washed five times prior to maintenance overnight at 37 °C and 5% CO2 in Basch medium containing 4% heat-inactivated FBS, 100 µg/mL streptomycin and 100 U/mL penicillin.
Ex vivo screens with adults employed 24-well flat-bottomed plates and approximately 5 males and 2–3 females/well. The complex and often dynamic phenotypic responses that the schistosome parasite is capable of were observed using a Zeiss Axiovert A1 inverted microscope at 24 h. Observations were classified using a constrained nomenclature that involves simple “descriptors” to convey changes in shape, motility and appearance, and the inability of the male worm to adhere to the bottom of the well, compared to DMSO controls. Each descriptor was given a value of 1 and these were added up to yield a “severity score” with a maximum of 4. Evidence of degeneracy or death was awarded a value of 4 as was damage to the tegument (parasite’s surface) on the understanding this would compromise survival in vivo. […] Data were averaged across two experiments for each compound concentration tested.

[2] = tested on: L. donovani intracellular amastigotes; test: L. donovani intracellular amastigote assay in B10R cells (high content imaging); assay type: cell-based, Leishmania donovani
Description: For the intracellular amastigote stage assay, L. donovani was incubated at a density of 1 × 10^6 parasites/mL for six days at 29 °C before infection to enrich the proportion of metacyclic promastigotes. B10R monocyte cell lines were cultured in RPMI supplemented with 10% FBS and 1%penicillin/streptomycin at 37 °C in 5% CO2. After 72 h, cells were counted with a hemocytometer and mixed with the six-day-old parasites. Into 384-well assay plates, that had been pre-spotted with compounds diluted 1000-fold in DMSO, with final assay concentrations ranging from 20 µM to 0.02 µM and tested in biological triplicates., 500 B10R cells and 7000 parasites were dispensed per well in a final volume of 50 µL using a Multidrop Combi liquid dispenser (ThermoScientific, Waltham, MA, USA). Plates were incubated at 37 °C and 5% CO2 for 72 h. Cultures were then fixed with 4% formaldehyde solution for 30 min and stained with 0.5 µg/mL DAPI (diamidino-2-phenylindole). Plates were then imaged using an ImageXpress Micro XLS automated high content imager (Molecular Devices, San Jose, CA, USA) using a 10× air objective. A custom image analysis module generated in ImageXpress was used to count the nuclei of host and parasite cells. EC50 values were obtained using the GraphPad Prism 9 Software with biological triplicates.

HEK-293T cells = test: HEK293 cytotoxicity assay (resazurin); assay type: cell-based; details: human embryonic kidney cells, 48 h, max 4 µM; read-out: CC50 HEK923
Description: HEK-293T cells were cultured in DMEM (Gibco) supplemented with 10% heat inactivated FBS (Corning) and 1% penicillin-streptomycin (Gibco). Cells were maintained in vented T75 cell culture flasks (Thermo Scientific, Cat. 12-565-349) at 37 °C and 5% CO2, and were passaged every 72 h. […] Compounds were diluted with fresh DMEM (49 µL/well). HEK-293 cells were suspended at 4 × 10^5 cells/mL in DMEM and added to each well (50 µL/well) to give 2 × 10^4 cells/well. Assay plates were incubated at 37 °C and 5% CO2 for 48 h, followed by addition of 20 µL of 0.5 mM resazurin (Alfa Aesar, Cat. B21187) in PBS to each well. […] In each assay plate, cell viability was normalized relative to positive and negative controls. Assays were performed in biological and technical duplicates, and dose–response and CC50 data were generated with GraphPad Prism 5 using a sigmoidal four parameter logistic curve.

[3] = in B10R cells, 72 h, read-out: EC50 L. donovani ntracelular amastigotes
[4] = at all concentrations (10, 5, 2.5 and 1.25 µM), 24 h

EC50 ([1]; Entamoeba histolytica): > 10 µM | EC50 ([2]; Leishmania donovani, range over L. donovani and T. cruzi intracellular stages and both parent compounds, read-out: EC50 values against the intracellular stages of both parasites): 1.08 to 4.27 µM | EC50 [2, 3]: 1.08 µM
SMILES: COc1ccc(NC(=O)CCC(=O)O)cc1 [MS26, 4-(4-methoxyphenylamino)-4 oxobutanoic acid]
severity score, adult S. mansoni (S. mansoni, adult worm; 10 µM, 24 h): zero | S. mansoni, adult worm: least concentration at which a severity score of 4 was recorded (S. mansoni, adult worm): >10.0 µM

SMILES: CCC[CH2][Sn]([CH2]CCC)([O]C(=O)CCC(=O)Nc1ccc(OC)cc1)[O]C(=O)CCC(=O)Nc1ccc(OC)cc1 [MS26Bu2]
S. mansoni, adult worm: least concentration at which a severity score of 4 was recorded (S. mansoni, adult worm): 1.25 µM | severity score, adult S. mansoni (S. mansoni, adult worm; [4]): 4 | EC50 [2, 3]: 0.28 µM | CC50 (HEK-293T cells): 0.37 µM

SMILES: CCC[CH2][Sn]([CH2]CCC)([CH2]CCC)[O]C(=O)CCC(=O)Nc1ccc(OC)cc1 [MS26Bu3]
EC50 [1]: 8.7 µM | S. mansoni, adult worm: least concentration at which a severity score of 4 was recorded (S. mansoni, adult worm): 1.25 µM | severity score, adult S. mansoni (S. mansoni, adult worm; [4]): 4 | EC50 [2, 3]: 0.21 µM | CC50 (HEK-293T cells): 0.14 µM

SMILES: CCC[CH2][Sn]([Cl])([Cl])[O]C(=O)CCC(=O)Nc1ccc(OC)cc1 [MS26BuSnCl2]
severity score, adult S. mansoni (S. mansoni, adult worm; 10 µM, 24 h): zero | S. mansoni, adult worm: least concentration at which a severity score of 4 was recorded (S. mansoni, adult worm): >10.0 µM | EC50 [2, 3]: > 20 µM | CC50 (HEK-293T cells): > 4 µM

SMILES: COc1ccc(NC(=O)CCC(=O)[O][Sn]([CH]2CCCCC2)([CH]2CCCCC2)[CH]2CCCCC2)cc1 [MS26Cy3]
S. mansoni, adult worm: least concentration at which a severity score of 4 was recorded (S. mansoni, adult worm): 1.25 µM | severity score, adult S. mansoni (S. mansoni, adult worm; [4]): 4 | CC50 (HEK-293T cells): 0.11 µM

SMILES: C[CH2][Sn]([CH2]C)([CH2]C)[O]C(=O)CCC(=O)Nc1ccc(OC)cc1 [MS26Et3]
EC50 [1]: 5.6 µM | severity score, adult S. mansoni (S. mansoni, adult worm; [4]): 4 | L. donovani intracellular parasites eliminated ([2]; 5 µM): > 95% | EC50 [2, 3]: 0.19 µM

SMILES: COc1ccc(NC(=O)CCC(=O)[O][Sn]([CH3])([CH3])[CH3])cc1 [MS26Me3]
response of adult S. mansoni (S. mansoni, adult worm; 5 µM, 24 h): the same response as MS26Oct2 at 10 µM | severity score, adult S. mansoni (S. mansoni, adult worm; 10 µM, 24 h): lethal | S. mansoni, adult worm: least concentration at which a severity score of 4 was recorded (S. mansoni, adult worm): 10 µM | EC50 [2, 3]: 3.26 µM | CC50 (HEK-293T cells): 1.24 µM

EC50 [2, 3]: 3.88 µM
SMILES: COc1ccc(NC(=O)CCC(=O)[O-])cc1.[Na+] [MS26Na, sodium 4-(4-methoxyphenylamino)-4 oxobutanoate]
severity score, adult S. mansoni (S. mansoni, adult worm; 10 µM, 24 h): zero | S. mansoni, adult worm: least concentration at which a severity score of 4 was recorded (S. mansoni, adult worm): >10.0 µM | CC50 (HEK-293T cells): > 4 µM

SMILES: COc1ccc(NC(=O)CCC(=O)[O][Sn]([c]2ccccc2)([c]2ccccc2)[c]2ccccc2)cc1 [MS26Ph3]
S. mansoni, adult worm: least concentration at which a severity score of 4 was recorded (S. mansoni, adult worm): 1.25 µM | severity score, adult S. mansoni (S. mansoni, adult worm; [4]): 4 | EC50 [2, 3]: 9.1 µM | CC50 (HEK-293T cells): 0.36 µM

SMILES: C=[CH][Sn]([CH]=C)([O]C(=O)CCC(=O)Nc1ccc(OC)cc1)[O]C(=O)CCC(=O)Nc1ccc(OC)cc1 [MS26vin2]
severity score, adult S. mansoni (S. mansoni, adult worm; 10 µM, 24 h): zero | S. mansoni, adult worm: least concentration at which a severity score of 4 was recorded (S. mansoni, adult worm): >10.0 µM | EC50 [2, 3]: > 20 µM | CC50 (HEK-293T cells): > 4 µM
